The values below come from PubChem BioAssay (NCI).

Among the test systems are SN12C renal; HT29 colon; KM12 colon; HL-60(TB) leukemia; OVCAR-3 ovarian; EKVX NSCLC; NCI-H23 lung; SK-OV-3 ovarian; HCT-15 colon; MDA-MB-231 breast.
Holding throughout (assay): NCI tumour cell line growth inhibition, 48 h

Where “and” joins values, the source holds several entries; their conditions need not be identical. Equal entries are not always repeated.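 Step 1: Grow cells in 96-well plates. Step 2: Expose to compound for 48 hours at 5 concentrations. Step 3: Interpolate endpoints linearly; if unreached, use highest concentration. Abbreviation: GI50, concentration required for 50% inhibition of growth. TGI: concentration producing complete growth inhibition.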

For the compound `Cc1ccc2c(C(C[N+](=O)[O-])c3ccco3)c(-c3ccccc3)[nH]c2c1` (centres undefined), the GI50 with SN12C renal is 47.8 µM; in the assay with HT29 colon, above 100 µM; in the assay on KM12 colon, 21500 nM; in the assay with HL-60(TB) leukemia it was 28300 nM; with OVCAR-3 ovarian it was 22800 nM; in the assay with EKVX NSCLC, 55000 nM. Besides, the GI50 is 64.5 µM in the assay on NCI-H23 lung, 37200 nM in the assay on SK-OV-3 ovarian, 7280 nM in the assay with HCT-15 colon and 27.1 µM with MDA-MB-231 breast. Besides, the TGI with SN12C renal, in the assay on HT29 colon, with KM12 colon, in the assay on HL-60(TB) leukemia, with OVCAR-3 ovarian and in the assay with EKVX NSCLC was above 100 µM in each case. For the same compound, the TGI in the assay with NCI-H23 lung, in the assay on SK-OV-3 ovarian, in the assay with HCT-15 colon and with MDA-MB-231 breast was above 100 µM in each case.

With `COc1ccc2c(c1)c(-c1cc(-c3cn(C)c4ccc(OC)cc34)[nH]n1)cn2C`, the GI50 is above 100 µM in the assay on SN12C renal; above 100 µM in the assay with HT29 colon; above 100000 nM in the assay on KM12 colon; above 100000 nM in the assay on HL-60(TB) leukemia; above 100000 nM in the assay on OVCAR-3 ovarian; above 100000 nM in the assay on EKVX NSCLC. Further, the GI50 in the assay on NCI-H23 lung was above 100 µM; with SK-OV-3 ovarian, above 100000 nM; in the assay with HCT-15 colon it was above 100000 nM; in the assay with MDA-MB-231 breast it was above 100 µM. Moreover, the TGI in the assay on SN12C renal, with HT29 colon, with KM12 colon, in the assay on HL-60(TB) leukemia, in the assay with OVCAR-3 ovarian and in the assay on EKVX NSCLC was above 100 µM each time. Moreover, the TGI with NCI-H23 lung, in the assay with SK-OV-3 ovarian, with HCT-15 colon and in the assay with MDA-MB-231 breast was above 100 µM each time.

Regarding `N#CC1=C(N)Oc2c(sc3c(Br)cccc23)C1c1ccc(F)cc1` (centres undefined), the GI50 is 1.22 µM in the assay on SN12C renal; 0.367 µM in the assay on HT29 colon; 361 nM in the assay on KM12 colon; 204 nM with HL-60(TB) leukemia; 265 nM in the assay on OVCAR-3 ovarian; 534 nM in the assay on EKVX NSCLC. In addition, the GI50 was 0.416 µM in the assay with NCI-H23 lung, 471 nM with SK-OV-3 ovarian, 390 nM in the assay with HCT-15 colon and 0.824 µM in the assay with MDA-MB-231 breast. For the same compound, the TGI with SN12C renal was determined as 18.7 µM; in the assay with HT29 colon, 10.3 µM; in the assay with KM12 colon, 15.2 µM; in the assay on HL-60(TB) leukemia, 1.02 µM; with OVCAR-3 ovarian, 0.917 µM; with EKVX NSCLC, 23.2 µM. The TGI came to 17.9 µM with NCI-H23 lung, 18.6 µM in the assay with SK-OV-3 ovarian, 11.4 µM with HCT-15 colon and 15.9 µM with MDA-MB-231 breast.

`CCn1c(-c2nonc2N)nc2c(C#CC(C)(C)O)ncc(OC[C@@H]3CCCN3)c21`: the GI50 with SN12C renal is 5.26 µM; in the assay on HT29 colon, 5.15 µM; with KM12 colon, 2610 nM; in the assay with HL-60(TB) leukemia, 5630 nM; in the assay with OVCAR-3 ovarian it was 2860 nM; with EKVX NSCLC it was 11700 nM. For the same compound, the GI50 in the assay with NCI-H23 lung was 8.64 µM; in the assay on SK-OV-3 ovarian, 968 nM; with HCT-15 colon, above 25000 nM; with MDA-MB-231 breast, 7.46 µM. The TGI in the assay with SN12C renal was above 25 µM; with HT29 colon it was above 19.7 µM; in the assay with KM12 colon it was 18.5 µM; with HL-60(TB) leukemia, 15 µM; in the assay on OVCAR-3 ovarian, 9.22 µM; in the assay on EKVX NSCLC, above 25 µM. Also, the TGI was above 25 µM in the assay with NCI-H23 lung, above 19 µM in the assay with SK-OV-3 ovarian, above 25 µM in the assay on HCT-15 colon and above 25 µM with MDA-MB-231 breast.

Take `C/C(N=NC(=S)N1CCCCCC1)=C1\C=CC=CN1O`: the TGI is above 100 µM in the assay on SN12C renal; above 35.6 µM with HT29 colon; above 100 µM in the assay with KM12 colon; 1.74 µM with HL-60(TB) leukemia; 11.8 µM with OVCAR-3 ovarian; above 94.4 µM with EKVX NSCLC. In addition, the TGI with NCI-H23 lung is above 56.2 µM; in the assay with SK-OV-3 ovarian it was 98.2 µM; in the assay on HCT-15 colon it was above 100 µM; with MDA-MB-231 breast, above 100 µM.

`Oc1cccc(-c2nc(N3CCOCC3)c3oc4ncccc4c3n2)c1`: the GI50 in the assay on SN12C renal was 0.0923 µM and 0.136 µM; in the assay with HT29 colon it was 6.52 µM and 8.37 µM; with KM12 colon it was 286 nM and 297 nM; with HL-60(TB) leukemia, 117 nM and 364 nM; in the assay on OVCAR-3 ovarian, 164 nM and 213 nM; with EKVX NSCLC, 213 nM. Moreover, the GI50 in the assay on NCI-H23 lung is 0.269 µM and 0.292 µM; in the assay on SK-OV-3 ovarian, 91.2 nM and 81.9 nM; in the assay with HCT-15 colon, 125 nM and 112 nM; with MDA-MB-231 breast, 0.34 µM and 0.3 µM. Moreover, the TGI with SN12C renal is above 100 µM; in the assay with HT29 colon, above 100 µM; in the assay on KM12 colon it was above 100 µM; with OVCAR-3 ovarian it was 0.811 µM and 3.24 µM; with EKVX NSCLC, 0.82 µM; in the assay on NCI-H23 lung, > 100 µM and 31.4 µM. The TGI was 0.606 µM and 0.393 µM in the assay on SK-OV-3 ovarian; above 100 µM in the assay on HCT-15 colon; 54.5 µM and 33.2 µM in the assay on MDA-MB-231 breast.

As for `CCOc1cccc(/C=N/NC(=O)Cc2ccc(Nc3ccnc(C(F)(F)F)c3)cc2)c1O`, the GI50 in the assay with SN12C renal is 4.58 µM; in the assay with HT29 colon, 8 µM; in the assay with KM12 colon it was 3730 nM; in the assay on HL-60(TB) leukemia, 1030 nM; in the assay on OVCAR-3 ovarian it was 394 nM; in the assay on EKVX NSCLC, 3870 nM. In addition, the GI50 in the assay with NCI-H23 lung was 5.26 µM; in the assay on SK-OV-3 ovarian, 3300 nM; in the assay with HCT-15 colon, 909 nM; with MDA-MB-231 breast it was 3.15 µM. In addition, the TGI was above 100 µM in the assay with SN12C renal; 78.6 µM in the assay on HT29 colon; 84.3 µM in the assay with KM12 colon; 4.22 µM with HL-60(TB) leukemia; 30.4 µM in the assay on OVCAR-3 ovarian; above 100 µM with EKVX NSCLC. For the same compound, the TGI with NCI-H23 lung, with SK-OV-3 ovarian, with HCT-15 colon and in the assay on MDA-MB-231 breast was above 100 µM each time.

As for `N#Cc1c(-c2ccc(Cl)cc2)csc1NC(=O)Nc1cccc(C(F)(F)F)c1`, the GI50 in the assay on SN12C renal was 2.93 µM; in the assay with HT29 colon, 2.5 µM; in the assay with KM12 colon, 2640 nM; in the assay with HL-60(TB) leukemia, 2430 nM; in the assay with OVCAR-3 ovarian, 2730 nM; with EKVX NSCLC, 1970 nM. Besides, the GI50 was 1.99 µM with NCI-H23 lung, 2540 nM in the assay with SK-OV-3 ovarian, 2380 nM in the assay with HCT-15 colon and 1.78 µM in the assay on MDA-MB-231 breast. In addition, the TGI in the assay with SN12C renal was 10.7 µM; with HT29 colon, 10.5 µM; in the assay with KM12 colon, 9.9 µM; in the assay with HL-60(TB) leukemia it was 6.69 µM; with OVCAR-3 ovarian, 11.2 µM; in the assay with EKVX NSCLC it was 9.75 µM. In addition, the TGI in the assay with NCI-H23 lung is 5.33 µM; in the assay with SK-OV-3 ovarian it was 6.89 µM; in the assay with HCT-15 colon, 10.2 µM; with MDA-MB-231 breast, 3.72 µM.

With `COc1ccc(-c2nn(-c3cccc(Cl)c3)cc2-c2cc(-c3cccs3)no2)cc1`, the GI50 in the assay on SN12C renal was 3.48 µM; in the assay with HT29 colon it was 3.85 µM; with KM12 colon it was 2980 nM; in the assay with HL-60(TB) leukemia, 4730 nM; in the assay with OVCAR-3 ovarian it was 5070 nM; with EKVX NSCLC it was 2070 nM. For the same compound, the GI50 in the assay on NCI-H23 lung was 3.82 µM; in the assay on SK-OV-3 ovarian it was 8890 nM; in the assay on HCT-15 colon, 4480 nM; in the assay with MDA-MB-231 breast it was 3.08 µM. Moreover, the TGI came out at 18.7 µM in the assay on SN12C renal; 15.1 µM with HT29 colon; 11.1 µM with KM12 colon; 38.3 µM in the assay on HL-60(TB) leukemia; 25 µM in the assay with OVCAR-3 ovarian; 13.5 µM in the assay with EKVX NSCLC. Besides, the TGI stood at 20.8 µM in the assay with NCI-H23 lung, 44.1 µM with SK-OV-3 ovarian, 32.9 µM in the assay on HCT-15 colon and 16.9 µM with MDA-MB-231 breast.

Turning to `O=C1Nc2ccc(Br)cc2C1=Nc1ccc(Cl)cc1`, the TGI in the assay on SN12C renal is 31.2 µM; with HT29 colon it was 38.5 µM; with KM12 colon, 24.8 µM; with HL-60(TB) leukemia it was 39 µM; in the assay on OVCAR-3 ovarian, 40 µM; with EKVX NSCLC, 47.1 µM. The TGI is above 100 µM in the assay with NCI-H23 lung, above 100 µM in the assay with SK-OV-3 ovarian, 36.8 µM in the assay with HCT-15 colon and 45.9 µM in the assay with MDA-MB-231 breast.
